Measurements from PubChem BioAssay (NCI).
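In this assay, cells in 96-well plates receive the compound at five concentrations for 48 hours. Endpoints are linearly interpolated between the surrounding concentrations. TGI is the concentration that stops growth completely.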

Tests used:
Assay in all cases: growth of human tumour cells (NCI), 48 h
M19-MEL melanoma = system: M19-MEL melanoma
NCI/ADR-RES ovarian = system: NCI/ADR-RES ovarian
OVCAR-5 ovarian = system: OVCAR-5 ovarian
XF 498 CNS = system: XF 498 CNS
U251 CNS = system: U251 CNS
SR leukemia = system: SR leukemia
UACC-62 melanoma = system: UACC-62 melanoma
MDA-MB-231 breast = system: MDA-MB-231 breast
SK-MEL-5 melanoma = system: SK-MEL-5 melanoma
HCT-15 colon = system: HCT-15 colon

SMILES	TGI (M19-MEL melanoma)	TGI (NCI/ADR-RES ovarian)	TGI (OVCAR-5 ovarian)	TGI (XF 498 CNS)	TGI (U251 CNS)	TGI (SR leukemia)	TGI (UACC-62 melanoma)	TGI (MDA-MB-231 breast)	TGI (SK-MEL-5 melanoma)	TGI (HCT-15 colon)
CN(C)CCC(=O)N1C/C(=C\c2ccc(Cl)c(Cl)c2)C(=O)/C(=C/c2ccc(Cl)c(Cl)c2)C1	1.13 µM	1.06 µM	1.69 µM	2.32 µM	0.437 µM	9.84 µM	1.72 µM	0.799 µM	0.759 µM	0.493 µM
O=C(NC(=O)c1c(F)cccc1F)Nc1cccc(Oc2ncc(Cl)cn2)c1	> 100 µM	> 100 µM	> 100 µM	69 µM	> 83.6 µM	> 73.8 µM	> 100 µM	> 100 µM	> 100 µM	> 100 µM
Nc1ncnc2c1ncn2C1C=C(CO)C(O)C1O (stereo not given)	> 100 µM	74.8 µM	> 100 µM	> 100 µM	> 100 µM	3.24 µM	> 57.5 µM	52.5 µM	> 100 µM	> 53.7 µM
Cc1cc(N(CC(C)Br)CC(C)Br)ccc1N=Nc1ccccc1C(=O)O (stereo not given)	29 µM	> 100 µM	10.2 µM	4.62 µM	22 µM	> 40.7 µM	3.4 µM	32.8 µM	14.6 µM	29 µM
